Results on eight compounds are retold here after patent US9732088B2, “C2-carbocyclic iminothiazine dioxides as BACE inhibitors, compositions, and their use” (Merck Sharp & Dohme Corp., priority 2014, dated 2017).

For one assay, the system named is CSF Aβ40. Put plainly: Aβ Reduction In Vivo (rat CSF Aβ40). Conditions: male CD IGS rats, 10 mg/kg oral gavage, CSF at 3 hours, change vs vehicle. On the procedure:
Assay 5: Aβ Reduction In Vivo
The in vivo efficacy and/or potency of BACE inhibitors (test compounds) can be evaluated using a variety of animal models, including mouse, rat, dog, and monkey, and these animals can be wild type, transgenic, or gene knockout animals.
Generally, animals are administered (by oral gavage, intravenous injection, or by other suitable route) a test compound in doses ranging from, for example, 0.1 mg/kg (mg of compound per kg of animal body weight) to 100 mg/kg formulated in vehicles, such as cyclodextrin, phosphate buffer, hydroxypropyl methylcellulose or other suitable vehicles. One to twenty-four hours following the administration of compound, animals are sacrificed, and tissues (for example, brain, cerebrospinal fluid (CSF), and/or plasma) are collected for analysis of Aβ levels and/or test compound concentrations (Dovey et al., 2001, Journal of Neurochemistry, 76, 173-181). Tissue samples are processed appropriately and then analyzed for the presence of Aβ by specific sandwich ELISA assays based on electrochemiluminescence (ECL) technology.
For example, in the following assay for which data are reported below, male CD IGS rats (body weight approximately 120 g, Charles River Laboratories, Kingston, N.Y.) were used to assess lowering of CSF levels of Aβ1-40 (Aβ40) in the presence of compounds of the invention. At time 0, animals were administered by oral gavage a test compound at a dose of 10 mg/kg in 20% hydroxypropyl-β-cyclodextrin (dosing volume 5 mL/kg). A separate group of animals received 20% hydroxypropyl-β-cyclodextrin alone to serve as the vehicle control group. Three hours after administration, the rats were euthanized with excess CO2. Immediately following euthanasia, CSF was collected from the cisterna magna and quickly frozen on dry ice. Samples were stored at −80° C. until quantification of Aβ40 levels.
The measurement of endogenous rat Aβ40 in CSF relied on the 585 antibody (Ab585, BioSource, NONO585), which specifically recognizes the N-terminal sequence of rodent Aβ40, and on the monoclonal antibody, G2-10, which specifically recognizes the free C-terminus of Aβ40. Ab585 was labeled with biotin (b-Ab585) by first dialyzing the antibody sample extensively versus PBS (pH 7.8) to remove impurities, followed by dilution to between 1 and 2 mg/mL protein concentration. EZ-Link Sulfo-NHS-LC-Biotin (Pierce) was dissolved in PBS (pH 7.8) at a concentration of 1 mg/mL immediately prior to use. Ab585 was labeled with EZ-Link Sulfo-NHS-LC-biotin using a 10:1 biotin:antibody ratio by incubation at room temperature for 1 hour. The labeling reaction was quenched by addition of 1.0 M glycine to a final concentration of 0.1 M followed by 10 minute incubation at room temperature. Glycine was removed by extensive dialysis versus PBS.
For rat CSF Aβ40 determinations, a calibration curve of various concentrations of synthetic rodent Aβ40 was assayed in parallel with rat CSF samples in duplicate using an avidin-coated 96-well MSD plate (Mesoscale Diagnostics). Either 50 μL of rodent Aβ40 standards diluted in PBS (pH 7.4) supplemented with 1% BSA and 1% Tween-20 (standard diluent buffer) or 40 μL of standard diluent buffer plus 10 μL rat CSF were added to each 96 well avidin-coated plate. To each well was added 50 μL of 0.1 M HEPES (pH 7.5), 2% BSA, 2% Tween-20, 0.3 M NaCl (2×Aβ40 buffer) supplemented with the b-Ab585 capture and ruthenylated-G2-10 detection antibodies diluted to 1 μg/mL and 0.5 μg/mL, respectively. Plates were shaken for 1 min on a microplate shaker, covered to protect from light and incubated overnight (˜16 h) at 4° C. For detection, plates were first washed twice with 100 μL of 1×CSF Aβ40 buffer followed by addition of 160 μL of 1×MSD read buffer-T (Mesoscale Diagnostics) diluted in 1×CSF Aβ40 buffer. Plates were read on a MSD Sector Imager 2400 model (Mesoscale Diagnosotics). […]

In assay [1] the target is purified human autoBACE-2 (Homo sapiens (Human), UniProt Q9Y5Z0). Description: BACE-2 Assay (BACE-HTRF assay). It counts as biochemical. Conditions: Assay 2; Ki calculated from IC50 by Cheng-Prusoff; read-out: BACE2 Ki. Summed up:
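Purified human autoBACE-2 (1 nM final) pre-incubated 30 min at 30° C with compounds in 20 mM sodium acetate pH 5.0, 10% glycerol, 0.1% Brij-35, 5% DMSO final; endpoint HTRF cleavage of QSY7/Eu FRET peptide, read at 620 nm (320 nm excitation). IC50 by sigmoidal regression of normalized data; Ki by Cheng-Prusoff.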

In assay [2] the target is purified human Cathepsin-D (Homo sapiens (Human), UniProt P07339). Description: Cathepsin-D Assay (time-resolved FRET).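 Further: Europium-labelled peptide substrate with QSY7 quencher, cleavage read as 620 nm fluorescence after 30 min preincubation then 30 min reaction at 30 °C, pH 5.0, inhibition lowers signal.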 The assay is classed as biochemical. Conditions: Assay 4; Ki calculated from IC50 by Cheng-Prusoff.
Description: Assay 4: Cathepsin-D Assay
This substrate contains an C-terminal QSY7 moiety that serves as a quencher of the N-terminal Europium fluorophore (620 nm Em). In the absence of enzyme activity, 620 nm fluorescence is low in the assay and increased linearly over 1 hour in the presence of uninhibited Cathepsin-D enzyme. Inhibition of Cathespin D cleavage of the Eu-Aspartyl Protease-QSY7 substrate by inhibitors is manifested as a suppression of 620 nm fluorescence.
Varying concentrations of inhibitors in a volume of 100 nl are preincubated with purified human Cathepsin-D (0.1 nM in 10 μl) for 30 minutes at 30° C. in reaction buffer containing 100 mM Na-Acetate pH 5.0, and 0.02% Brij-35. Reactions are initiated by addition of 10 μl of 100 nM Eu-Aspartyl Protease-QSY7 substrate (50 nM final) to give a final reaction volume of 20 μl in a 384 well Nunc HTRF plate. The reactions are incubated at 30° C. for 30 minutes. The 620 nm fluorescence is then read on a Envision Multilabel plate reader (Perkin-Elmer) using a 200 microsecond delay followed by a 400 microsecond acquisition time window. Inhibitor IC50 values are derived from non-linear regression analysis of concentration response curves.
A further assay deals with BACE-1 (Homo sapiens (Human), UniProt P56817). Description: BACE-1 Cellular Assay (Aβ in HEK293-APPswe/lon cells). The assay is classed as cell-based. Conditions: 4 hours. A digest of the protocol: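 HEK293 cells stably expressing human APP with Swedish and London FAD mutations, cultured at 37° C., 5% CO2. Aβ40 or Aβ42 in conditioned media measured by electrochemiluminescent ELISA (WO2 capture; G2-10 or G2-11 detection). IC50 from variable-slope sigmoidal fit of signal versus compound concentration.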
Chain of BACE-1 (P56817 46-501): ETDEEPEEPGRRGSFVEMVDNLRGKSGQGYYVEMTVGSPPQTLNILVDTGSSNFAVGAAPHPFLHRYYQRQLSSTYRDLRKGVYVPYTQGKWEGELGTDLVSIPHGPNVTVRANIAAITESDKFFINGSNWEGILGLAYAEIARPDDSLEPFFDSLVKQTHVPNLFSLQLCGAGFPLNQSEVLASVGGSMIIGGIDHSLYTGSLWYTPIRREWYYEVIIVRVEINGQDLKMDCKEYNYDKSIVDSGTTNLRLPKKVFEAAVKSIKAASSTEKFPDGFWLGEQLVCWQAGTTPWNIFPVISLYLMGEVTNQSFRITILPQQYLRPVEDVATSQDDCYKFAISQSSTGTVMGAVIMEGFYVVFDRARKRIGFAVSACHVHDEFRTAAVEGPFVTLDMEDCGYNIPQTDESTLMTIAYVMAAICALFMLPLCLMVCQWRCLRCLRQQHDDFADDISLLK

Chain of purified human Cathepsin-D (P07339 65-412): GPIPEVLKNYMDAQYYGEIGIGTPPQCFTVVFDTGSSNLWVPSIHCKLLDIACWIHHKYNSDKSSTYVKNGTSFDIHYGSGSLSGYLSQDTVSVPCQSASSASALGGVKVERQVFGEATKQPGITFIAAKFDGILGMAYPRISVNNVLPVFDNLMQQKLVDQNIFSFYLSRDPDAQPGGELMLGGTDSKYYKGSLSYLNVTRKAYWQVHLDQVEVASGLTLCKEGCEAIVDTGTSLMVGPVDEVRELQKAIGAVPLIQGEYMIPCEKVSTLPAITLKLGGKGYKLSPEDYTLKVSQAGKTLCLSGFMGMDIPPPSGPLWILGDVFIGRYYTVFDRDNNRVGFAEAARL
Chain of purified human autoBACE-2 (Q9Y5Z0 63-466): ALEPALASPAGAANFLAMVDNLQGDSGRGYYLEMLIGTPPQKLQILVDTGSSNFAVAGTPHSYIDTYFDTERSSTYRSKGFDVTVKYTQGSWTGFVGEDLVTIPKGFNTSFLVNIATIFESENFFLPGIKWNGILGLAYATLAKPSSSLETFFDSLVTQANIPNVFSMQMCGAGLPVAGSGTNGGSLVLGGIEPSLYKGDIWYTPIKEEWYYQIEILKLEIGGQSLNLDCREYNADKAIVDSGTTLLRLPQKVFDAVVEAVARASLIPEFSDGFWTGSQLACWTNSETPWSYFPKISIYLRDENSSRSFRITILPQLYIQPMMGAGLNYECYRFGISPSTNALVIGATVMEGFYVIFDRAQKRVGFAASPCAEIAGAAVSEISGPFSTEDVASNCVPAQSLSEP

With `COc1cnc2c(Nc3ccc(F)c([C@]4(C)CS(=O)(=O)C(C)(C)C(N)=N4)c3)nccc2n1` [Ex 47 of WO2014059185, reference compound], the “Aβ reduction in vivo in rat (Δ% CSF Aβ40 @ 10 mpk)” value with CSF Aβ40 is −88%.
With `C[C@@]1(c2nc(Nc3nccc4cc(C#N)cnc34)ncc2F)CS(=O)(=O)[C@@](C)(C2CC2)C(N)=N1` [Example 5, 8-({4-[(3R,6S)-6-cyclopropyl-5-imino-3,6-dimethyl-1,1-dioxidothiomorpholin-3-yl]-5-fluoropyrimidin-2-yl}amino)-1,7-naphthyridine-3-carbonitrile], the Ki – broadly, the dissociation constant of the complex between target and ligand, obtained from inhibition or displacement – in assay [1] is 0.0078 µM; in assay [2], 710 nM. Further, the IC50 (usually the concentration needed to halve the response being measured) against BACE-1 is 10 nM.
Regarding `COc1cnc2c(Nc3cc([C@]4(C)CS(=O)(=O)[C@@](C)(C5CC5)C(N)=N4)c(F)cn3)nccc2c1` [Example 6, N-{4-[(3R,6S)-6-cyclopropyl-5-imino-3,6-dimethyl-1,1-dioxidothiomorpholin-3-yl]-5-fluoropyridin-2-yl}-3-methoxy-1,7-naphthyridin-8-amine], the Ki was 0.00057 µM in assay [1] and over 9400 nM in assay [2]. Moreover, in the assay with CSF Aβ40, the “Aβ reduction in vivo in rat (Δ% CSF Aβ40 @ 10 mpk)” value was −92%. The IC50 against BACE-1 is 3 nM.
Consider `COc1cnc2c(Nc3ccc(F)c([C@]4(C)CS(=O)(=O)[C@@](C)(C5CC5)C(N)=N4)c3)nccc2c1` [Example 14, N-{3-[(3R,6S)-6-cyclopropyl-5-imino-3,6-dimethyl-1,1-dioxidothiomorpholin-3-yl]-4-fluorophenyl}-3-methoxy-1,7-naphthyridin-8-amine], for which the Ki was 0.0028 µM in assay [1] and 1650 nM in assay [2]. On BACE-1, half-maximal inhibition (IC50) was put at 21 nM.
`C[C@@]1(c2cc(Nc3ncnc4cc(C#N)cnc34)ccc2F)CS(=O)(=O)[C@@](C)(C2CC2)C(N)=N1` [Example 16, 4-({3-[(3R,6S)-6-cyclopropyl-5-imino-3,6-dimethyl-1,1-dioxidothiomorpholin-3-yl]-4-fluorophenyl}amino)pyrido[3,2-d]pyrimidine-7-carbonitrile]: the figures for the Ki in assay [1] and in assay [2] were 0.0014 µM and 2450 nM, respectively. Moreover, in the assay with CSF Aβ40, the “Aβ reduction in vivo in rat (Δ% CSF Aβ40 @ 10 mpk)” value is on record as −85%. At BACE-1, the IC50 worked out at 2.6 nM.
The like results for `C[C@@]1(c2cc(Nc3nccc4cc(C#N)cnc34)ccc2F)CS(=O)(=O)[C@@](C)(C2CC2)C(N)=N1` [Example 18, 8-({3-[(3R,6S)-6-cyclopropyl-5-imino-3,6-dimethyl-1,1-dioxidothiomorpholin-3-yl]-4-fluorophenyl}amino)-1,7-naphthyridine-3-carbonitrile] were, in that order, 0.00064 µM, 651 nM, −87% and 4.8 nM.
The like results for `COc1cnc2c(Nc3ccc(F)c([C@]4(C)CS(=O)(=O)[C@@](C)(C5CC5)C(N)=N4)c3)ncnc2n1` [Example 22, (2S,5R)-2-cyclopropyl-5-(2-fluoro-5-((7-methoxypteridin-4-yl)amino)phenyl)-3-imino-2,5-dimethylthiomorpholine 1,1-dioxide] were, in that order, 0.011 µM, over 9400 nM, −70% and 15 nM.
As to `CC1(C)C(=N)N[C@](C)(c2cc(Nc3noc4cc(F)cnc34)ccc2F)CS1(=O)=O` [WO′426 Ex. 30b, reference compound], the Ki in assay [1] is 0.0061 µM. The “Aβ reduction in vivo in rat (Δ% CSF Aβ40 @ 10 mpk)” value in the assay on CSF Aβ40 is on record as “+6%”. For the same compound, the midpoint of inhibition on BACE-1, the IC50, lay at 82 nM.
